Reference: publication PMC5610471, “Use of the KlADH3 promoter for the quantitative production of the murine PDE5A isoforms in the yeast Kluyveromyces lactis” (Microbial Cell Factories, 2017)

Tests used:
[1] = molecular target: T1, PDE5A1 (Mus musculus, UniProt Q8CG03); assay: biochemical
T1 construct: gene Pde5a

[2] = test system: [H][C@@]12COP(=O)(O)O[C@@]1([H])[C@@H](O)[C@H](n1cnc3c(=O)[nH]c(N)nc31)O2; assay: purified protein; details: Mg2+ ([…] MgCl2 in the assay buffer)

`CCCc1nn(C)c2c(=O)[nH]c(-c3cc(S(=O)(=O)N4CCN(C)CC4)ccc3OCC)nc12` [Sildenafil] showed an IC50 [1] of 4.7 ± 1.1 nM.

For PDE5A1 (Mus musculus), the Km [2] was 1.08 ± 0.08 µM.
